Measured values taken from patent US5250544A, “New piperidine tetrahydropyridine and pyrrolidine compounds” (Adir et Compagnie, priority 1990, dated 1993).

Test: Evaluation of the antihypertensive activity: arterial pressure and heart rate in anesthetized dogs, i.v.
Assay type: in vivo
Details: anesthetized mongrel dogs, versus flesinoxan racemic or isomer (+)
Procedure: Mongrel dogs (males and females) were anesthetized with phenobarbital (30 mg/kg i.v.) and then placed under artificial respiration (Bird Mark VII respirator). The arterial pressure was measured using a catheter placed in the abdominal aorta via the femoral artery. This catheter is connected to a pressure cell (Statham® R23 D6) connected to a recorder.
The heart rate was measured using a Gould Biotach®.
The sympathetic nervous activity was recorded at the level of the renal nerve using a silver electrode. […] The compounds to be examined were administered intravenously.

O=C(NCCN1CCN(c2cccc3c2OC[C@H](CO)O3)CC1)c1ccc(F)cc1 (single isomer, unassigned) [Flesinoxan (+) Isomer]
activity compared with reference product flesinoxan (antihypertensive study, Table II): most active isomer of flesinoxan
